Assay results as given in PMC4222822, “Discovery and Characterization of a Potent and Selective Inhibitor of Aedes aegypti Inward Rectifier Potassium Channels” (PLoS ONE, 2014).

How the values were obtained:
5-HT2B receptor = 5-HT2B receptor (Homo sapiens, UniProt P41595); test: Radioligand displacement assay, 5-HT2B receptor; format: binding, mammalian; settings: 10 µM VU625
Kir3.1/3.2 = target: T1, Kir3.1/3.2 (Homo sapiens, UniProt P48051+P48549); test: Tl+ flux selectivity assay, Kir3.1/3.2; format: cell-based; settings: Kir3.1/3.2 (with mGlu8, EC80 glutamate); n = 2 independent experiments in triplicate; read-out: Inhibition of Tl+ flux (IC50)
T1 construct: expressed in transfected cells
T1 sequence (P48549 1-501): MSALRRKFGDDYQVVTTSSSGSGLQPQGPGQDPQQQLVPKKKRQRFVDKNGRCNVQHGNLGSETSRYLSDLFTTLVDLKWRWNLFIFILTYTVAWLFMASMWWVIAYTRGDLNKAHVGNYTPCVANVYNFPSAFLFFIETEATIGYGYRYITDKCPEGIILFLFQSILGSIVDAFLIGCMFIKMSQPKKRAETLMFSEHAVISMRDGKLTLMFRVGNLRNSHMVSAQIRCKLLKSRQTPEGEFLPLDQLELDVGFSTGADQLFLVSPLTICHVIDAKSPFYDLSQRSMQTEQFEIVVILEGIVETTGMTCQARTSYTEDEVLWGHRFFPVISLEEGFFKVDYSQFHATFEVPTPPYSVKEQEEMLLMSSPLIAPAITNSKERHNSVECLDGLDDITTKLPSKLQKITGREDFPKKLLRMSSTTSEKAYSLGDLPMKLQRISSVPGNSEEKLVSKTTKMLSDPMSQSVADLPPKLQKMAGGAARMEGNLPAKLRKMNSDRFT
T1 sequence (P48051 1-423): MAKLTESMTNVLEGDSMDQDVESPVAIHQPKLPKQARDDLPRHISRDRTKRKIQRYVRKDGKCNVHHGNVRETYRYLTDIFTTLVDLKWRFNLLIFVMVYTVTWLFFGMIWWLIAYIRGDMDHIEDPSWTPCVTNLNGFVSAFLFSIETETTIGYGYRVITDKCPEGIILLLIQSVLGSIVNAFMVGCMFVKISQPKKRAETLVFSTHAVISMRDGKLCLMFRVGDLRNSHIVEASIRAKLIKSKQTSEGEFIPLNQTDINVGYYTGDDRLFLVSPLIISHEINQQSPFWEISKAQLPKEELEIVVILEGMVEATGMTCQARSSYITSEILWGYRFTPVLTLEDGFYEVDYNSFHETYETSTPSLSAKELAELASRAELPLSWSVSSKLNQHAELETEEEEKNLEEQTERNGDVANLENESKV
Experimental: [Worded in the source for another target; used here, by the source, with some conditions changed.] (§1) Tl^+ flux assays were performed essentially as described previously, [18], [19]. Briefly, stably transfected T-Rex-HEK-293 cells expressing AeKir1 channels were cultured overnight in 384-well plates (20,000 cells/20 µL/well black-walled, clear-bottomed BD PureCoat amine-coated plates (BD, Bedford, MA) with a plating media containing DMEM, 10% dialyzed FBS and 1 µg/mL tetracycline. The next day, the cell culture medium was replaced with a dye-loading solution containing assay buffer (Hanks Balanced Salt Solution with 20 mM HEPES, pH 7.3), 0.01% (w/v) Pluronic F-127 (Life Technologies, Carlsbad, CA), and 1.2 µM of the thallium-sensitive dye Thallos-AM (TEFlabs, Austin, TX). Following 1 hr incubation at room temperature, the dye-loading solution was washed from the plates and replaced with 20 µL/well of assay buffer. […] Tl^+ flux data were analyzed as previously described, [21], [22] using a combination of Excel (Microsoft Corp, Redmond, WA) with XLfit add-in (IDBS, Guildford, Surrey, UK) and OriginPro (OriginLab, Northampton, MA) software. […] The slope of the fluorescence increase beginning 5 s after Tl^+ addition and ending 15 s after Tl^+ addition was calculated.

Kir4.1 = target: T2, Kir4.1 (Homo sapiens, UniProt P78508); test: Tl+ flux selectivity assay, Kir4.1; format: cell-based; settings: n = 2 independent experiments in triplicate, read-out: Inhibition of Tl+ flux (IC50)
T2 construct: expressed in transfected cells
T2 sequence (P78508 1-379): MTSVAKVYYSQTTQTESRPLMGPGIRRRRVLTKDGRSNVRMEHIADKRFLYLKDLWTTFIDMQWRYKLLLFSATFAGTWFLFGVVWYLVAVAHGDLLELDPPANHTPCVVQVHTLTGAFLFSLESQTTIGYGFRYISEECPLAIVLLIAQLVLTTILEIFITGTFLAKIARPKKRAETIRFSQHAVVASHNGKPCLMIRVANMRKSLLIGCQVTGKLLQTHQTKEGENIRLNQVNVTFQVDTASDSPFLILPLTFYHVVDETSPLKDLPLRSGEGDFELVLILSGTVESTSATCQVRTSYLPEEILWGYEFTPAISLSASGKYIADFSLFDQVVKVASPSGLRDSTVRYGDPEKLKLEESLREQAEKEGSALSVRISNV
Experimental: as §1

Kir6.2/SUR1 = target: T3, Kir6.2/SUR1 (Homo sapiens, UniProt Q14654); test: Tl+ flux selectivity assay, Kir6.2/SUR1; format: cell-based; settings: Kir6.2/SUR1, diazoxide 250 µM; n = 2 independent experiments in triplicate; read-out: Inhibition of Tl+ flux (IC50)
T3 construct: expressed in transfected cells
Experimental: [Worded in the source for another target; used here, by the source, with some conditions changed.] as §1

Chain of 5-HT2B receptor (P41595 whole entry): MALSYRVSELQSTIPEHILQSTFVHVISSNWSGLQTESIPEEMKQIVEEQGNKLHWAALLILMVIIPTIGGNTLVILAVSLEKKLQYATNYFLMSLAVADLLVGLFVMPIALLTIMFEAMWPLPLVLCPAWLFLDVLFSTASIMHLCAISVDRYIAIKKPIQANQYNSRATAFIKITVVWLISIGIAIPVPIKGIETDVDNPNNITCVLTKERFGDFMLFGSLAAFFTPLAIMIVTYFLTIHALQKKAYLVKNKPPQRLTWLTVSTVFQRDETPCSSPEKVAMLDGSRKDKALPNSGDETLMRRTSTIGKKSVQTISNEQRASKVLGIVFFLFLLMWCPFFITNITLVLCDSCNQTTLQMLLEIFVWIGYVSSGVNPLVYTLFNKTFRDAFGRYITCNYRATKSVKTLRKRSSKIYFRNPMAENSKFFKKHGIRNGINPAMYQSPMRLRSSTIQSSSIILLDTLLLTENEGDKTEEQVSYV
T3 sequence (Q14654 whole entry): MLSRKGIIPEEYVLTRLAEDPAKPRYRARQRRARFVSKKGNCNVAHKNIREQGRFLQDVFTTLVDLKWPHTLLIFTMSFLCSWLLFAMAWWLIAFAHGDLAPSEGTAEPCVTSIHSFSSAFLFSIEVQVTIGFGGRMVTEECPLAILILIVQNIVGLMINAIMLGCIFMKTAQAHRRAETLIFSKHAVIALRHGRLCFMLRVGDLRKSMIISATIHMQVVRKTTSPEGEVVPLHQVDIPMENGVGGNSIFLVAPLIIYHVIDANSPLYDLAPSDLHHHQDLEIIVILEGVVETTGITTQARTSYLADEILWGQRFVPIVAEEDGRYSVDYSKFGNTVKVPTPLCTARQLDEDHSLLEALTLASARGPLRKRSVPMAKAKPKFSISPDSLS
T3 sequence (Q09428 whole entry partner): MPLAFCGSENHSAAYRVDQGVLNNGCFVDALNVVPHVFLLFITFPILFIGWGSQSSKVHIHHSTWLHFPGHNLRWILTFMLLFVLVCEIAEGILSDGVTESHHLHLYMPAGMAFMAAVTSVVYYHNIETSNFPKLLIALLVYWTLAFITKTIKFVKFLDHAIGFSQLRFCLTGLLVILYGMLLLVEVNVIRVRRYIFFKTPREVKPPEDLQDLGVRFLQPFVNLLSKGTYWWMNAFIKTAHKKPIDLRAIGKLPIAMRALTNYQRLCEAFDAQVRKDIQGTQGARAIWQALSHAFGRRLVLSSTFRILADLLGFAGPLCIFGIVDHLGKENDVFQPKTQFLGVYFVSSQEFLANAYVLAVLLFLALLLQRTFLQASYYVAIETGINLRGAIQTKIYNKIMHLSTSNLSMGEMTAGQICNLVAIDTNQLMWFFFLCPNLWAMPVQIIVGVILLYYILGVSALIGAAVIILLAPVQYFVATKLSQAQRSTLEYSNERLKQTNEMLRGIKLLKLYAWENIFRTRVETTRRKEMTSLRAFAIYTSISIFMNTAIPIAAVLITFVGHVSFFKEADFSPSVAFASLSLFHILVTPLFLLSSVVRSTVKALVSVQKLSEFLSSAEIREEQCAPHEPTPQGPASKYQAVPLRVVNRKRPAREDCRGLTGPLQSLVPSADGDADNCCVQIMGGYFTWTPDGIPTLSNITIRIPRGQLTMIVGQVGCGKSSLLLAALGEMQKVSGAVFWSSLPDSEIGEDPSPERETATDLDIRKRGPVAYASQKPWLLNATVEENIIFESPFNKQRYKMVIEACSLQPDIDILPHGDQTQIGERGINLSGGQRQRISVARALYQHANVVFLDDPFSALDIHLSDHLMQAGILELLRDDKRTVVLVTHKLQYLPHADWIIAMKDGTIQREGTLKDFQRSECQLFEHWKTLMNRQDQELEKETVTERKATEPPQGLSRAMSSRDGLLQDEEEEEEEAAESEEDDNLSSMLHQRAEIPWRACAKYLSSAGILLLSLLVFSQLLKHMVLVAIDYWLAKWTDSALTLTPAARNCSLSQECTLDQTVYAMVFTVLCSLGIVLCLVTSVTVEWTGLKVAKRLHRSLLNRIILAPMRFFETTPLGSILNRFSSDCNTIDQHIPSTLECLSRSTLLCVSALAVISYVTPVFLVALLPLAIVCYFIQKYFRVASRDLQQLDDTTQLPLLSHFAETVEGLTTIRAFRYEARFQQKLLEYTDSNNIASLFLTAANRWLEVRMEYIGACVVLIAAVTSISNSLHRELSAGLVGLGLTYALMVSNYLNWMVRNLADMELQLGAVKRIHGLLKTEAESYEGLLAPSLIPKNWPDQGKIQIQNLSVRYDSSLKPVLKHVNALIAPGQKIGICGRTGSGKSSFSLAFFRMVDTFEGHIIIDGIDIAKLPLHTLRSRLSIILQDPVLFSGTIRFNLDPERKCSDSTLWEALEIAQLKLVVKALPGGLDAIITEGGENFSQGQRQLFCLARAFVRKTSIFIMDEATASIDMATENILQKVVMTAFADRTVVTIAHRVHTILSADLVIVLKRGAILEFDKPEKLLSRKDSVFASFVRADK

With `CCC(=O)N1c2ccc(S(=O)(=O)Nc3cccc(OC)c3)cc2CC1C` (stereo not shown) [VU625, N-(3-methoxyphenyl)-2-methyl-1-propionylindoline-5-sulfonamide] the radioligand displacement (5-HT2B receptor) was 69%, the IC50 (Kir3.1/3.2) was 8.6 µM and the IC50 (Kir4.1) was > 30 µM. For the same molecule, the IC50 (Kir6.2/SUR1) was > 30 µM.
